Values quoted from earlier work as cited in US20120328537A1, “Topical wound management formulation” (priority 2011, published 2012).

Tested on: Strep Mutans
Conditions: in particular Strep Mutans, the main bacteria responsible for dental caries

Question: With OC[C@@H](O)[C@H](O)[C@@H](O)CO [Xylitol] as the molecule, how does the growth of bacteria read?
Answer: The growth of bacteria was “inhibit the growth of bacteria”.
